Data from publication PMC10324063, “Comparative Saturation Binding Analysis of ^64Cu-Labeled Somatostatin Analogues Using Cell Homogenates and Intact Cells” (ACS Omega, 2023).
Read-outs that look alike come from different tables or passages of the source. Marks after values point to notes of the source that are not given here. Blank lines part the entries; values can stand above or below the molecule they belong to. Positions of bridges follow the written chain, without caps; N, C: chain ends. Non-standard residues stand in square brackets, D forms with d. Residues, ends and D or L forms follow the SMILES beside them. *: point of attachment. NODAGA = O=C(O)CN1CCN(CC(=O)O)CCN(C(CCC(=O)*)C(=O)O)CC1; dPhe(4-NHCONH2) = NC(=O)Nc1ccc(C[C@@H](N)C(=O)O)cc1; Dihydroorotyl(S) = O=C1C[C@@H](C(=O)*)NC(=O)N1; Phe(4-Cl) = N[C@@H](Cc1ccc(Cl)cc1)C(=O)O; Phe(4-NH2) = Nc1ccc(C[C@H](N)C(=O)O)cc1

Assays:
[1] = system: MPC cells; set-up: method as in Brandt et al.[16], Brandt et al.[17]; conditions: intact MPC cells, 20 nM radioligand, 1 h, 37 °C, acid wash glycine pH 2.8; previously published; ref Brandt et al.[16], Brandt et al.[17]; cited from earlier work
[2] = Radioligand stability toward intact MPC cells under assay conditions; assay type: in vitro ADME, mouse; conditions: 40 nM radioligand, 37 °C, radio-HPLC of supernatant
Source text: (§1) Considering the aforementioned exposure of the radioligands to intracellular components in cell homogenates, a degradation by intracellular proteases could lead to reduced radioligand concentrations and thus apparently higher Kd values. While most of the serine and cysteine proteases might be inhibited by the used inhibitor cocktail during homogenization (see Materials and Methods), a residual proteolytic activity cannot be excluded. Therefore, for the two radioligands, [^64Cu]Cu-NODAGA-NES2-TATE and [^64Cu]Cu-NODAGA-NES5-TATE, the stability toward cell homogenates and intact cells under assay conditions were exemplarily examined (Figure S3 in the Supporting Information).
(§2) Figure S3: Stability toward cell homogenate and intact cells
(§3) [64Cu]Cu-NODAGA-NES2-TATE and [64Cu]Cu-NODAGA-NES5-TATE (40 nM) were incubated at 37°C under assay conditions in the presence of MPC cell homogenate or MPC intact cells. After 1 h, an aliquot (160 µL) was withdrawn, mixed with “Supersol” (320 µL), which consists of 20% ethanol, 0.5% Triton X-100, 5 mM EDTA, 0.5 mM o-phenanthroline, and 0.1% saponin. This was followed by centrifugation at 13,500 rpm for 3 min (Thermo Scientific Heraeus Fresco 21). The supernatant was analyzed by radio-HPLC.1, 2 […]
(§4) (1 picture or pasted object on this page, not shown here)

[3] = Radioligand stability toward MPC cell homogenate under assay conditions; assay type: in vitro ADME, mouse; conditions: 40 nM radioligand, 37 °C, radio-HPLC of supernatant
Source text: as §1, §2, §3, §4

[4] = system: MPC cells; test: Cell binding and uptake (acid wash) in MPC cells; assay type: cell-based, mouse; conditions: intact MPC cells, 20 nM radioligand, 1 h, 37 °C, acid wash 0.05 M glycine pH 2.8 for 5 min; nonspecific with 20 μM Acetyl-TATE; from mean values of one experiment in sextuplicate
Protocol: MPC cells were seeded into collagen-coated 24-well microplates and cultivated for 4 days. All washing steps were performed using PBS containing 0.9 mM CaCl2 and 0.5 mM MgCl2. Total radioligand uptake was measured after incubation with the radioligand (Am = 30 GBq/μmol) at a final concentration of 20 nM in RPMI 1640 medium with GlutaMAX supplement (Thermo Fisher Scientific) for 1 h at 37 and 4 °C. Nonspecific binding was determined in the presence of 20 μM Acetyl-TATE. The uptake fraction was measured after acid wash of cell surface-bound radioligand with wash buffer containing 0.05 M glycine, pH 2.8, for 5 min. The activity of cell homogenates was measured using the γ counter Wizard (PerkinElmer). The protein content of cell homogenates was measured as described above.
Nonspecific binding was determined in the presence of 20 µM Acetyl -TATE (radioligand concentration of 20 nM). Data shown in A and B are mean values (±SD) of one experiment, which was performed in sextuplicate. In C, the uptake fraction (“internalized” or not acid releasable radioligand, red bars in A, mean values) is expressed as percentage of specific total-bound radioligand (blue bars in A, mean values). The difference to 100% was assigned to “surface-bound” radioligand. For a better overview, the compound names were abbreviated. […]
specific binding of radioligand
Incubation at 37°C for 1 h […]

[5] = molecular target: T1, SST2 (Mus musculus, UniProt P30875); test: Saturation binding of 64Cu-labeled radioligands to intact MPC cells (adherent); conditions: 1 h, 37 °C, mean (68% confidence interval) of one experiment in duplicate or triplicate
T1 construct: endogenous in cells; host or cells: MPC (mouse pheochromocytoma) cells, passages 35-40
Protocol: A number of 3 × 10^5 cells/cm^2 were seeded in collagen-coated 48-well microplates (CELLSTAR 48 Well Cell Culture Multiwell Plates, Polystyrene, Greiner bio-one, Item no. 677180) and grown for three days. For binding assays, cell culture medium was removed and replaced by fresh medium supplemented with the radioligand (Am = 25 MBq/nmol) at increasing final concentrations between 0.321 and 40 nM (final sample volume 0.2 mL). […] Samples were incubated for 60 min at 37 °C. Incubation was stopped by washing with ice-cold Dulbecco’s PBS. Cells were lysed with 0.1 M NaOH containing 1% (w/v) SDS. Activity was measured in cell homogenates and in a series of radioligand standards containing increasing molar amounts between 0.06 and 8 pmol using the gamma counter Wizard (PerkinElmer). […] Measurements for total binding were performed in triplicate, while measurements for nonspecific binding were performed in duplicates.
Plots of “total binding” = f(radioligand) were analyzed by nonlinear regressions using the model of “one site—total, accounting for ligand depletion” as implemented in GraphPad Prism and Plots of “nonspecific binding” = f(radioligand) were analyzed by linear regressions. For the ligand depletion model, the term “NS” was constrained to the respective slopes obtained by the linear regressions. […]

[6] = molecular target: T1, SST2; test: Saturation binding of 64Cu-labeled radioligands to MPC cell homogenates; conditions: read-out: Kd, MPC cell homogenate
Protocol: MPC cells (passages 35–40) were routinely cultured in collagen-coated flasks as described elsewhere[49] and harvested at 70–80% confluency in Dulbecco’s phosphate-buffered saline containing 2.0 mM ethylenediaminetetraacetic acid (EDTA) at 4 °C for 30 min. Cells were resuspended and frozen in fetal bovine serum containing 10% (v/v) DMSO and stored at −70 °C. After thawing, cells were washed and resuspended in ice-cold saturation assays buffer, pH 7.4, containing 50 mM Tris-HCl, 1 mM EDTA, 0.5 mM o-phenanthroline, and 0.1% (w/v) bovine serum albumin. Cells were homogenized in ice-cold saturation assay buffer supplemented with complete EDTA-free proteinase inhibitor (Roche, Basel Switzerland) using a Dounce homogenizer. Protein content of cell homogenates was measured at A280nm (setting 1 Abs = 1 mg/mL) using a nanodrop spectrophotometer (Thermo-Fisher Scientific).
For the measurement of total binding, 0.155 mL of cell homogenates were incubated with radioligands (molar activity (Am) = 25 MBq/nmol) at increasing final concentrations between 0.625 and 40 nM (final sample volume 0.2 mL) in Polystyrene tubes (5 mL, round bottom, clear, Greiner bio-one, Item no. 115101). […] Activity bound to filters was measured using the gamma counter Wizard (PerkinElmer). Activity in a series of radioligand standards was measured at increasing molar amounts between 0.625 and 40 nM. […]

T1 sequence (P30875 whole entry): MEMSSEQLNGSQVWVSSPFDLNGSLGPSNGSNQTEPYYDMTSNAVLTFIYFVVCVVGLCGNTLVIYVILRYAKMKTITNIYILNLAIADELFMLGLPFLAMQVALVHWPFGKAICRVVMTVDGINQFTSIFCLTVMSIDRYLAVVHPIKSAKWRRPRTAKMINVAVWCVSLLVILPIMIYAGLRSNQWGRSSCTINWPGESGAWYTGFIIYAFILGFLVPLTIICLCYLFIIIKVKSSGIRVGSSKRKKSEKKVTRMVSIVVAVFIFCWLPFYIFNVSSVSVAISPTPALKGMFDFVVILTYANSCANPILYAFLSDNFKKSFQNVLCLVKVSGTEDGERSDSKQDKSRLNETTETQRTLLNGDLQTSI

stability (radioligand remaining stable) after 1 h of incubation with intact MPC cells [2]: ≥ 87%
stability (radioligand remaining stable) after 1 h of incubation with MPC cell homogenate [3]: ≥ 87%
SMILES: C[C@@H](O)[C@H](NC(=O)[C@@H]1CSSC[C@H](NC(=O)[C@@H](Cc2ccccc2)NC(=O)COCCOCCNC(=O)[C@H](CCCCn2cc(CCC(=O)N[C@@H](CCCCNC(=O)CCCc3ccc(I)cc3)C(=O)O)nn2)NC(=O)[C@H](Cc2ccccc2)NC(=O)CNC(=O)[C@@H](CCCNC(=N)N)NC(=O)c2ccc(CNC(=O)CCC(C(=O)O)N3CCN(CC(=O)O)CCN(CC(=O)O)CC3)cc2)C(=O)N[C@@H](Cc2ccc(O)cc2)C(=O)N[C@H](Cc2c[nH]c3ccccc23)C(=O)N[C@@H](CCCCN)C(=O)N[C@@H]([C@@H](C)O)C(=O)N1)C(=O)O (stereo partly shown) [NES5-TATE]
uptake fraction (internalized or not acid releasable radioligand) as percentage of specific total-bound radioligand [1]: 62 ^d %

SMILES: C[C@@H](O)[C@H](NC(=O)[C@@H]1CSSC[C@H](NC(=O)[C@@H](Cc2ccccc2)NC(=O)COCCOCCNC(=O)[C@H](CCCCN=[N+]=[N-])NC(=O)[C@H](Cc2ccccc2)NC(=O)CNC(=O)c2ccc(CNC(=O)CCC(C(=O)O)N3CCN(CC(=O)O)CCN(CC(=O)O)CC3)cc2)C(=O)N[C@@H](Cc2ccc(O)cc2)C(=O)N[C@H](Cc2c[nH]c3ccccc23)C(=O)N[C@@H](CCCCN)C(=O)N[C@@H]([C@@H](C)O)C(=O)N1)C(=O)O (stereo partly shown) [NES3-TATE]
uptake fraction (internalized or not acid releasable radioligand) as percentage of specific total-bound radioligand [1]: 68 ^d %

SMILES: C#CC[C@H](NC(=O)CCC(C(=O)O)N1CCN(CC(=O)O)CCN(CC(=O)O)CC1)C(=O)NCCOCCOCC(=O)N[C@H](Cc1ccccc1)C(=O)N[C@H]1CSSC[C@@H](C(=O)N[C@H](C(=O)O)[C@@H](C)O)NC(=O)[C@H]([C@@H](C)O)NC(=O)[C@H](CCCCN)NC(=O)[C@@H](Cc2c[nH]c3ccccc23)NC(=O)[C@H](Cc2ccc(O)cc2)NC1=O (stereo partly shown) [Pra-PEG2-TATE]
uptake fraction (internalized or not acid releasable radioligand) as percentage of specific total-bound radioligand [4]: 48%

SMILES: C[C@@H](O)[C@H](NC(=O)[C@@H]1CSSC[C@H](NC(=O)[C@@H](Cc2ccccc2)NC(=O)COCCOCCNC(=O)[C@H](Cc2cn(CCCCC(=O)N[C@H](CCCCNC(=O)CCCc3ccc(I)cc3)C(=O)O)nn2)NC(=O)CCC(C(=O)O)N2CCN(CC(=O)O)CCN(CC(=O)O)CC2)C(=O)N[C@@H](Cc2ccc(O)cc2)C(=O)N[C@H](Cc2c[nH]c3ccccc23)C(=O)N[C@@H](CCCCN)C(=O)N[C@@H]([C@@H](C)O)C(=O)N1)C(=O)O (stereo partly shown) [cLAB1-TATE]
uptake fraction (internalized or not acid releasable radioligand) as percentage of specific total-bound radioligand [4]: 66%

SMILES: CCCC[C@H](NC(=O)CCC(C(=O)O)N1CCN(CC(=O)O)CCN(CC(=O)O)CC1)C(=O)N[C@H](C(=O)N[C@@H](CCCCN=[N+]=[N-])C(=O)NCCOCCOCC(=O)N[C@H](Cc1ccccc1)C(=O)N[C@H]1CSSC[C@@H](C(=O)N[C@H](C(=O)O)[C@@H](C)O)NC(=O)[C@H]([C@@H](C)O)NC(=O)[C@H](CCCCN)NC(=O)[C@@H](Cc2c[nH]c3ccccc23)NC(=O)[C@H](Cc2ccc(O)cc2)NC1=O)C(C)C (stereo partly shown) [NES1-TATE]
uptake fraction (internalized or not acid releasable radioligand) as percentage of specific total-bound radioligand [1]: 49 ^d %

SMILES: C[C@@H](O)[C@H](NC(=O)[C@@H]1CSSC[C@H](NC(=O)[C@@H](Cc2ccccc2)NC(=O)COCCOCCNC(=O)[C@H](CCCCN=[N+]=[N-])NC(=O)[C@H](Cc2ccccc2)NC(=O)CNC(=O)[C@@H](CCCNC(=N)N)NC(=O)c2ccc(CNC(=O)CCC(C(=O)O)N3CCN(CC(=O)O)CCN(CC(=O)O)CC3)cc2)C(=O)N[C@@H](Cc2ccc(O)cc2)C(=O)N[C@H](Cc2c[nH]c3ccccc23)C(=O)N[C@@H](CCCCN)C(=O)N[C@@H]([C@@H](C)O)C(=O)N1)C(=O)O (stereo partly shown) [NES4-TATE]
uptake fraction (internalized or not acid releasable radioligand) as percentage of specific total-bound radioligand [1]: 53 ^d %

Kd [5]: 8.17 nM
Kd [6]: 5.35 nM
SMILES: C[C@@H](O)[C@@H]1NC(=O)[C@H](CCCCN)NC(=O)[C@@H](Cc2ccc(NC(N)=O)cc2)NC(=O)[C@H](Cc2ccc(NC(=O)[C@@H]3CC(=O)NC(=O)N3)cc2)NC(=O)[C@H](NC(=O)[C@H](Cc2ccc(Cl)cc2)NC(=O)CCC(C(=O)O)N2CCN(CC(=O)O)CCN(CC(=O)O)CC2)CSSC[C@@H](C(=O)N[C@H](Cc2ccc(O)cc2)C(N)=O)NC1=O (stereo partly drawn) [JR11] ({NODAGA}-[Phe(4-Cl)][dC][Phe(4-NH2)](Dihydroorotyl(S))[dPhe(4-NHCONH2)]KTC[dY]-NH2; disulfide 2-7)

stability (radioligand remaining stable) after 1 h of incubation with intact MPC cells [2]: ≥ 87%
stability (radioligand remaining stable) after 1 h of incubation with MPC cell homogenate [3]: ≥ 87%
SMILES: CCCC[C@H](NC(=O)c1ccc(CNC(=O)CCC(C(=O)O)N2CCN(CC(=O)O)CCN(CC(=O)O)CC2)cc1)C(=O)N[C@H](C(=O)N[C@@H](CCCCN=[N+]=[N-])C(=O)NCCOCCOCC(=O)N[C@H](Cc1ccccc1)C(=O)N[C@H]1CSSC[C@@H](C(=O)N[C@H](C(=O)O)[C@@H](C)O)NC(=O)[C@H]([C@@H](C)O)NC(=O)[C@H](CCCCN)NC(=O)[C@@H](Cc2c[nH]c3ccccc23)NC(=O)[C@H](Cc2ccc(O)cc2)NC1=O)C(C)C (stereo partly shown) [NES2-TATE]
uptake fraction (internalized or not acid releasable radioligand) as percentage of specific total-bound radioligand [1]: 56 ^d %
